Reference: ChEMBL document CHEMBL1142345, “Synthesis and biological evaluation of alpha- and beta-6-amido derivatives of 17-cyclopropylmethyl-3, 14beta-dihydroxy-4, 5alpha-epoxymorphinan: potential alcohol-cessation agents” (J Med Chem, 2008)
Active and inactive are the calls of the source. The calls are words filed in the database; no cut-off is given here.

Legend:
Mu-type opioid receptor [1] = biological target: T1, Mu-type opioid receptor (Homo sapiens, UniProt P35372); assay: Displacement of [3H]DAMGO from human mu opioid receptor expressed in CHO cells; type: cell-based
T1 sequence (P35372 whole entry): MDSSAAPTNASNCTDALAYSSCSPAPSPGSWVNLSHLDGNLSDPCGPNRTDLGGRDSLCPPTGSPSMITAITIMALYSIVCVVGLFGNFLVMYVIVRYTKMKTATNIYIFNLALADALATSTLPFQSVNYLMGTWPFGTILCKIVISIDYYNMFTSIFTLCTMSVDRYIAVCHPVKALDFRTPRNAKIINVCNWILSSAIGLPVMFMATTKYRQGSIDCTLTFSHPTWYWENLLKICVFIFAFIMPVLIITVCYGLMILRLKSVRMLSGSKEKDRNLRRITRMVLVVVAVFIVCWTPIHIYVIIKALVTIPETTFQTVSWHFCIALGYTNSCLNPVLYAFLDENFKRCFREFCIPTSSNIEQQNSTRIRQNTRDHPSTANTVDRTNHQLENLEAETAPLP

[2] = biological target: T2, Kappa-type opioid receptor (Homo sapiens, UniProt P41145); assay: Displacement of [3H]U69593 from human kappa opioid receptor expressed in CHO cells; type: cell-based
T2 sequence (P41145 whole entry): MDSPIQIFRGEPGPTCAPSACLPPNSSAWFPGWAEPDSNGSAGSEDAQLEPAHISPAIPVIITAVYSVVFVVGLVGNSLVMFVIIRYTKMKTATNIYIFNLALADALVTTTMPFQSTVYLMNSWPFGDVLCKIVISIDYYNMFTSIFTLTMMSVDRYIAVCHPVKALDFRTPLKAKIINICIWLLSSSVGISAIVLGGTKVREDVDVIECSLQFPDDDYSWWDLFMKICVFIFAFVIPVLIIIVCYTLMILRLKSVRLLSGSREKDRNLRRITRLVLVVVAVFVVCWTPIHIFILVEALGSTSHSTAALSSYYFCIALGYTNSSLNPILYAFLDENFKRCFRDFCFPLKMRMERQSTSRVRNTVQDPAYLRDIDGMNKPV

Homo sapiens [3] = species: Homo sapiens; assay: Selectivity ratio of Ki for human mu opioid receptor over Ki for human delta opioid receptor
Homo sapiens [4] = species: Homo sapiens; assay: Selectivity ratio of Ki for human mu opioid receptor over Ki for human kappa opioid receptor
[5] = biological target: T3, Delta-type opioid receptor (Homo sapiens, UniProt P41143); assay: biochemical
T3 sequence (P41143 whole entry): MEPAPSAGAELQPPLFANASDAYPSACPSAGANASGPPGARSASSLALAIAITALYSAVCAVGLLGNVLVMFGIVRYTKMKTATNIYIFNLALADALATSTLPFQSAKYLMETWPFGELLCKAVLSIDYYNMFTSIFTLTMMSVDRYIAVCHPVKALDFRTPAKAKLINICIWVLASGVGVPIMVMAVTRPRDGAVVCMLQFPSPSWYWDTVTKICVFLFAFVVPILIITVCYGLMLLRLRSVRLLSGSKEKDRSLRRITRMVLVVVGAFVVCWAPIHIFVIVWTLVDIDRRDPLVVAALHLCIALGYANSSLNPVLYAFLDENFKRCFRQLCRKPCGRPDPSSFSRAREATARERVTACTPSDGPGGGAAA
Description: Displacement of [3H]DPDPE from human delta opioid receptor expressed in CHO cells

[6] = Metabolic stability assessed as half life in human liver S9 fraction at 40 uM; type: ADME, subcellular
CYP3A4 = CYP3A4 (Homo sapiens, UniProt P08684); assay: Inhibition of CYP3A4 at 10 uM; type: ADME
Sequence of CYP3A4 (P08684 whole entry): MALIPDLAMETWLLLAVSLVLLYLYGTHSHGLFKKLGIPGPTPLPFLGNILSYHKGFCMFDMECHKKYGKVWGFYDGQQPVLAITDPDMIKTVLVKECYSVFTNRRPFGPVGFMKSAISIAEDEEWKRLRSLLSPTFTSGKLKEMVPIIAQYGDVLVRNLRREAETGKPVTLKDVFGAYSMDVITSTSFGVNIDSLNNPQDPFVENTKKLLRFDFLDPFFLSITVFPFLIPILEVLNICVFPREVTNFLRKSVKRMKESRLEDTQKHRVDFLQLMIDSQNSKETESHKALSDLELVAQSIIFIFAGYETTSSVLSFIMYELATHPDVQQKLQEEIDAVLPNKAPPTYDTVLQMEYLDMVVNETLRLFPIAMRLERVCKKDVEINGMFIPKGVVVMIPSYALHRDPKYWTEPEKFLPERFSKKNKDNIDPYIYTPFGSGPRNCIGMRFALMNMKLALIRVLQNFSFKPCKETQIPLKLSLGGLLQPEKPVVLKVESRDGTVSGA

CYP2C9 = CYP2C9 (Homo sapiens, UniProt P11712); assay: Inhibition of CYP2C9 at 10 uM; type: ADME
Sequence of CYP2C9 (P11712 whole entry): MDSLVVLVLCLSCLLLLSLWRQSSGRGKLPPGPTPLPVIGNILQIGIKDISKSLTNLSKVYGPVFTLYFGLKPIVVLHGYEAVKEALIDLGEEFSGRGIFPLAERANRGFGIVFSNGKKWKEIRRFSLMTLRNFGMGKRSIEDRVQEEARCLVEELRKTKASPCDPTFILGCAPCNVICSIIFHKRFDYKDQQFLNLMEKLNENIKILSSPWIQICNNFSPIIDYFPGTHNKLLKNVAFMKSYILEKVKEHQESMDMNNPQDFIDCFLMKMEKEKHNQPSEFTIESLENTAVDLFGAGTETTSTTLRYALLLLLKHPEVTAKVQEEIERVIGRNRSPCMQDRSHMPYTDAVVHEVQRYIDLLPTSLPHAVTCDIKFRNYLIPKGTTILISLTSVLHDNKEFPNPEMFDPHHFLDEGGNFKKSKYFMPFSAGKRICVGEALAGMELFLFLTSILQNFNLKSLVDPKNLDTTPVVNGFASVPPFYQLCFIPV

CYP2C19 = CYP2C19 (Homo sapiens, UniProt P33261); assay: Inhibition of CYP2C19 at 10 uM; type: ADME
Sequence of CYP2C19 (P33261 whole entry): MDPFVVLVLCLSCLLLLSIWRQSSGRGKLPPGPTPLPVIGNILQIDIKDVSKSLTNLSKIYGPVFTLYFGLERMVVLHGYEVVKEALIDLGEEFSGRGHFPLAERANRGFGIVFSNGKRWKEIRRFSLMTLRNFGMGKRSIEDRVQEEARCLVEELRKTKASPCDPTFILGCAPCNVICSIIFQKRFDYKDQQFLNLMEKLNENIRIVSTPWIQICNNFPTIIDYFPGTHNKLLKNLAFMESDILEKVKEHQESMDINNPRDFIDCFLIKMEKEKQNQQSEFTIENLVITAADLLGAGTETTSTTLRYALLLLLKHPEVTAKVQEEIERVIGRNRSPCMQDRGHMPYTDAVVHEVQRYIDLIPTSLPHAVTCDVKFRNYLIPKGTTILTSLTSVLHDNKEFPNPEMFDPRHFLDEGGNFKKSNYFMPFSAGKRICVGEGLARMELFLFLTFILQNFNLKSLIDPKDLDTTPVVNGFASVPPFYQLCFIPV

Rattus norvegicus [7] = assay: Inhibition of self alcohol consumption in rat at 0.025 mg/kg using operant techniques; type: functional
Mu-type opioid receptor [8] = biological target: T1, Mu-type opioid receptor
Description: Activity at human mu opioid receptor by [35S]GTPgammaS binding assay

[9] = Metabolic stability assessed as half life in mouse liver microsomes at 40 uM; type: ADME, Microsome
Rattus norvegicus [10] = species: Rattus norvegicus; assay: Inhibition of self alcohol consumption in rat using operant techniques; type: functional
Rattus norvegicus [11] = assay: Inhibition of self alcohol consumption in rat at 1.5 mg/kg using operant techniques; type: functional
[12] = biological target: T3, Delta-type opioid receptor; assay: Agonist activity at human delta opioid receptorR by [35S]GTPgammaS binding assay; type: functional
[13] = biological target: T2, Kappa-type opioid receptor; assay: Agonist activity at human kappa opioid receptorR by [35S]GTPgammaS binding assay; type: functional
CYP2D6 = CYP2D6 (Homo sapiens, UniProt P10635); assay: in vitro
Sequence of CYP2D6 (P10635 whole entry): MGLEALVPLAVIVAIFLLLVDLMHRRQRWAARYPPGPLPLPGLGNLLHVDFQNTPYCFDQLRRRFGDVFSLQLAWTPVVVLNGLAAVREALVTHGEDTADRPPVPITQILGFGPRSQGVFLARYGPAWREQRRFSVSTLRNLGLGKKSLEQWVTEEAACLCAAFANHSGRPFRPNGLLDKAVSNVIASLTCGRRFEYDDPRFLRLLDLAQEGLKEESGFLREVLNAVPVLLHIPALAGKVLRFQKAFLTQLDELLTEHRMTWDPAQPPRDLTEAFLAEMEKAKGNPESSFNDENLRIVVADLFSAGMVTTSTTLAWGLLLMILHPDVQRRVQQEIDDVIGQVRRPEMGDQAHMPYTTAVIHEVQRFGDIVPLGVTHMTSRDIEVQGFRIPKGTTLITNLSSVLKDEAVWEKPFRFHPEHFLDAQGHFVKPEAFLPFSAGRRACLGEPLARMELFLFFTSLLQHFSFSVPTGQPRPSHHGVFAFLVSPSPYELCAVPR
Description: Inhibition of CYP2D6 at 10 uM

Row | SMILES | Ki (Mu-type opioid receptor [1]) [pM] | Ki [2] [pM] | Ratio Ki (Homo sapiens [3]) | Ratio Ki (Homo sapiens [4]) | Ki [5] [pM] | also measured
1 | O=C(N[C@@H]1CC[C@@]2(O)[C@H]3Cc4ccc(O)c5c4[C@@]2(CCN3CC2CC2)[C@H]1O5)c1ccccn1 | 310 | 390 | 180 | 1.3 | 56300 | 
2 | O=C(C[C@@H]1O[C@H](CO)[C@@H](O)[C@H](O)[C@H]1O)N[C@H]1CC[C@@]2(O)[C@H]3Cc4ccc(O)c5c4[C@@]2(CCN3CC2CC2)[C@H]1O5 | 670 | 2030 | 55 | 3 | 36900 | 
3 | O=C(N[C@@H]1CC[C@@]2(O)[C@H]3Cc4ccc(O)c5c4[C@@]2(CCN3CC2CC2)[C@H]1O5)c1ccc(Cl)c(Cl)c1 |  |  |  |  |  | half-life at 40 µM [6]: 346 min; inhibition at 10 µM (CYP3A4): 35.5%; inhibition at 10 µM (CYP2C9): 32.3%; inhibition at 10 µM (CYP2C19): 48.3%; inhibition in vivo at 0.025 mg/kg (Rattus norvegicus [7]): 77%
4 | O=C(N[C@H]1CC[C@@]2(O)[C@H]3Cc4ccc(O)c5c4[C@@]2(CCN3CC2CC2)[C@H]1O5)c1ccccc1 | 210 | 780 |  |  |  | 
5 | CC(C)(C)OC(=O)Nc1ccc(C(=O)N[C@@H]2CC[C@@]3(O)[C@H]4Cc5ccc(O)c6c5[C@@]3(CCN4CC3CC3)[C@H]2O6)cc1 | 920 | 790 | 28 | 0.86 | 25300 | 
6 | O=C(C[C@@H]1O[C@H](CO)[C@@H](O)[C@H](O)[C@H]1O)N[C@@H]1CC[C@@]2(O)[C@H]3Cc4ccc(O)c5c4[C@@]2(CCN3CC2CC2)[C@H]1O5 | 640 | 4500 | 150 | 7 | 99000 | Ke (Mu-type opioid receptor [8]): 0.37 nM
7 | C=C1CC[C@@]2(O)[C@H]3Cc4ccc(O)c5c4[C@@]2(CCN3CC2CC2)[C@H]1O5 |  |  |  |  |  | half-life at 40 µM [9]: 20 min; half-life at 40 µM [6]: 20 min; inhibition at 10 µM (CYP2C9): 35.5%; ED50 (Rattus norvegicus [10]): 0.04 mg/kg
8 | COc1cccc(C(=O)N[C@H]2CC[C@@]3(O)[C@H]4Cc5ccc(O)c6c5[C@@]3(CCN4CC3CC3)[C@H]2O6)c1 | 160 | 720 | 36 | 4.5 | 5820 | half-life at 40 µM [9]: 49 min
9 | COc1ccc(CC(=O)N[C@@H]2CC[C@@]3(O)[C@H]4Cc5ccc(O)c6c5[C@@]3(CCN4CC3CC3)[C@H]2O6)cc1 | 270 | 420 | 74 | 1.6 | 19900 | 
10 | O=C(N[C@@H]1CC[C@@]2(O)[C@H]3Cc4ccc(O)c5c4[C@@]2(CCN3CC2CC2)[C@H]1O5)c1cccc(O)c1 | 130 | 60 | 21 | 0.5 | 2730 | 
11 | CN(C)c1cccc(C(=O)NC2CC[C@@]3(O)[C@H]4Cc5ccc(O)c6c5[C@@]3(CCN4CC3CC3)[C@H]2O6)c1 (stereo partly drawn) | 1200 | 1700 | 7.08 | 1.42 | 8500 | inhibition at 10 µM (CYP3A4): 39.9%; inhibition at 10 µM (CYP2C9): 23.1%; inhibition at 10 µM (CYP2C19): 70%; inhibition in vivo at 1.5 mg/kg (Rattus norvegicus [11]): 17%; Activity [12]: Active; Activity [13]: Active; inhibition at 10 µM (CYP2D6): 23.5%; Ke (Mu-type opioid receptor [8]): 0.14 nM
12 | O=C(N[C@@H]1CC[C@@]2(O)[C@H]3Cc4ccc(O)c5c4[C@@]2(CCN3CC2CC2)[C@H]1O5)c1cccc([N+](=O)[O-])c1 | 190 | 280 |  |  |  | 
13 | COc1cc(OC)cc(C(=O)N[C@@H]2CC[C@@]3(O)[C@H]4Cc5ccc(O)c6c5[C@@]3(CCN4CC3CC3)[C@H]2O6)c1 | 260 | 290 | 68 | 1.1 | 17600 | 
14 | O=C(Cc1ccccc1)N[C@@H]1CC[C@@]2(O)[C@H]3Cc4ccc(O)c5c4[C@@]2(CCN3CC2CC2)[C@H]1O5 | 160 | 430 | 180 | 2.7 | 28000 | 
